Laboratory results reported in ChEMBL document CHEMBL3414493, “Design, synthesis and anticholinesterase activity of novel benzylidenechroman-4-ones bearing cyclic amine side chain” (Eur J Med Chem, 2015).

Tests used:
Acetylcholinesterase [1] = target: T1, Acetylcholinesterase (Electrophorus electricus, UniProt O42275)
Description: Inhibition of electric eel AChE pre-incubated for 3 mins before acetylthiocholine substrate addition by Ellman's reagent based spectrophotometry

Cholinesterase = Cholinesterase (Equus caballus, UniProt P81908)
Description: Inhibition of equine serum BuChE pre-incubated for 3 mins before butyrylthiocholine substrate addition by Ellman's reagent based spectrophotometry

Acetylcholinesterase [2] = target: T1, Acetylcholinesterase; remark: listed apart in the source
Description: Inhibition of electric eel AChE pre-incubated for 3 mins before acetylthiocholine substrate addition by Lineweaver-Burk plot

T1 sequence (O42275 whole entry): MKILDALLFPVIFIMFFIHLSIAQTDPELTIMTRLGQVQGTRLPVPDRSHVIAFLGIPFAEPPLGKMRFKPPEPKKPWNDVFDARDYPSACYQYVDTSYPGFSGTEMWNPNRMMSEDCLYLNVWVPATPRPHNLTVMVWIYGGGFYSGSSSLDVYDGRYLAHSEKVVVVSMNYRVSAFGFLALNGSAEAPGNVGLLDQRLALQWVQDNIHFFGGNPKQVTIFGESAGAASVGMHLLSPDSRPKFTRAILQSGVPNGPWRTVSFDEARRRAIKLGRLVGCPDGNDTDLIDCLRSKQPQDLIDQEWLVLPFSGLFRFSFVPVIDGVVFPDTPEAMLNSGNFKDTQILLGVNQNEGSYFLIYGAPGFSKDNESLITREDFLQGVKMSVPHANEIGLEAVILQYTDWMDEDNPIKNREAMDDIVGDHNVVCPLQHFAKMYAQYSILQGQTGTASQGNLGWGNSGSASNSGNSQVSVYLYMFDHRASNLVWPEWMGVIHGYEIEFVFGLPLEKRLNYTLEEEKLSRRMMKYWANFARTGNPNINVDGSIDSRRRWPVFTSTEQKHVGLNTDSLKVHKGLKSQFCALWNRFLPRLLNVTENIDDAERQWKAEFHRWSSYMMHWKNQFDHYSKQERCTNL
Sequence of Cholinesterase (P81908 whole entry): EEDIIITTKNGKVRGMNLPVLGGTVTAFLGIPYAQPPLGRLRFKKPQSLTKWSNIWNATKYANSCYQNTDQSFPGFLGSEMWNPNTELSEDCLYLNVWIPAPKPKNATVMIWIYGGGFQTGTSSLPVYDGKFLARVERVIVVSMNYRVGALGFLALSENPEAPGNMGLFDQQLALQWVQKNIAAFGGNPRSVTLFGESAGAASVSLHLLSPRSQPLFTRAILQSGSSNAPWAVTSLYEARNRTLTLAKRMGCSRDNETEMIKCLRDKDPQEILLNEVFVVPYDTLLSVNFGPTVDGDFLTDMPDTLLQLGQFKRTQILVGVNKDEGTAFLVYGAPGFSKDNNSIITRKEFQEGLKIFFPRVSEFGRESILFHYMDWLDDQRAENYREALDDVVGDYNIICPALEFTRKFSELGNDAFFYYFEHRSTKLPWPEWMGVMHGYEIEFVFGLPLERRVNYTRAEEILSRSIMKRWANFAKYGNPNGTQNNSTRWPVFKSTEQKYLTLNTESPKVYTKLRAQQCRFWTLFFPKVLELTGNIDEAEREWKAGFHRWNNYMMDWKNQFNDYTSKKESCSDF

| Compound | IC50 (Acetylcholinesterase [1]) [µM] | IC50 (Cholinesterase) [µM] | Ki (Acetylcholinesterase [2]) [µM] |
| --- | --- | --- | --- |
| O=C1/C(=C/c2ccc(OCCCN3CCOCC3)cc2)COc2cc(O)ccc21 | 158 |  |  |
| O=C1/C(=C/c2ccc(OCCCN3CCCCC3)cc2)COc2cc(O)ccc21 | 2.38 | 27.4 |  |
| O=C1/C(=C/c2ccc(OCCN3CCOCC3)cc2)COc2cc(O)ccc21 | 8.16 | 96 |  |
| O=C1/C(=C/c2ccc(OCCN3CCCCC3)cc2)COc2cc(O)ccc21 | 0.192 | 2.16 |  |
| COc1ccc2c(c1)OC/C(=C\c1ccc(OCCCN3CCCCC3)cc1)C2=O | 3.29 | 26.3 |  |
| COc1ccc2c(c1)OC/C(=C\c1ccc(OCCN3CCCCC3)cc1)C2=O | 0.173 | 8.2 |  |
| COc1ccc2c(c1)OC/C(=C\c1ccc(OCCN3CCOCC3)cc1)C2=O | 1.9 | 11.6 |  |
| COc1ccc2c(c1)OC/C(=C\c1ccc(OCCCN3CCOCC3)cc1)C2=O | 13.9 | 101 |  |
| COc1ccc2c(c1)OC/C(=C\c1ccc(OCCCN3CCCC3)cc1)C2=O | 1.1 | 6.85 |  |
| CCOc1ccc2c(c1)OC/C(=C\c1ccc(OCCN3CCCCC3)cc1)C2=O | 0.122 | 0.854 | 0.27 |
| CCOc1ccc2c(c1)OC/C(=C\c1ccc(OCCCN3CCOCC3)cc1)C2=O | 6.84 | 28.7 |  |
| CCOc1ccc2c(c1)OC/C(=C\c1ccc(OCCN3CCOCC3)cc1)C2=O | 1 | 10.2 |  |
| CCOc1ccc2c(c1)OC/C(=C\c1ccc(OCCCN3CCCCC3)cc1)C2=O | 0.562 | 3.1 |  |
| O=C1/C(=C/c2ccc(OCCN3CCOCC3)cc2)COc2cc(OCc3ccccc3)ccc21 | 6.44 | 83.7 |  |
| O=C1/C(=C/c2ccc(OCCCN3CCOCC3)cc2)COc2cc(OCc3ccccc3)ccc21 | 50 |  |  |
| O=C1/C(=C/c2ccc(OCCN3CCCCC3)cc2)COc2cc(OCc3ccccc3)ccc21 | 0.207 | 2.58 |  |
| O=C1/C(=C/c2ccc(OCCCN3CCCC3)cc2)COc2cc(OCc3ccccc3)ccc21 | 3.5 | 49 |  |
| O=C1/C(=C/c2ccc(OCCCN3CCCCC3)cc2)COc2cc(OCc3ccccc3)ccc21 | 2.7 | 32.4 |  |
